For assay [1], the system named is precontracted rabbit or rat aortic preparations. Description: Vasorelaxant potency on precontracted aortic rings. Particulars: for IC50: thoracic aortic segments precontracted with histamine or norepinephrine, read-out: IC50 (concentration producing half-maximal relaxation of the precontracted tissue); for vasorelaxant potency in words: precontracted vascular preparations. How it is done: Synthetic ANVP compounds were compared to partially purified (gel filtration step) and purified (HPLC) native ANVP compounds (See FIGS. 3A-D) for their ability to relax histamine-contracted aortic rings. Rings were suspended in 10 ml aerated Kreb's buffer under 1.5 gm passive tension. Rings were precontracted with 5 X 10^-6 M histamine, washed and allowed to return to baseline tension, as described ([…]., supra). Increasing amounts of purified or synthetic ANVP compounds were then added in cumulative fashion. […] The relaxation effects of various ANVP compounds on precontracted rabbit or rat aortic preparations are shown in Table III. | Thoracic aortic segments were precontracted with histamine or | norepinephrine as previously described. Various doses of ANVP compounds | were then added and relaxation of the precontracted state was monitored. | Data are expressed as the concentration of each peptide required to | produce a halfmaximal relaxation of the precontracted tissue (IC50).

Assay [2] deals with ANVP receptor sites on cultured bovine vascular smooth muscle cells. The experiment in a line: Displacement of specific [125I]rANVP(126-150) binding on cultured smooth muscle cells. The note with it: for Ki: concentration of half-maximal displacement. An excerpt: Specific and saturable binding is a necessary component of a hormone/receptor interaction.
Various concentrations of the peptides described were examined for […]

Assay [3] has as its system intact rats. Description: Natriuretic and diuretic effects in intact rats (bolus injection). The assay is classed as in vivo, rat. The note with it: dose 455 pmol/kg. How it is done: Synthetic ANVP compounds […] hANVP(127-151) were also found to be natriuretic in the intact rat. These compounds were administered as a bolus injection to Inactin anesthetized rats (100 mg/kg, average weight 399 g) which were maintained on a constant infusion of normal saline at 2.2 ml/hr. […] Data are expressed as mean±SE.

In assay [4] the test system is isolated rat kidney. The experiment in a line: Renal function in the isolated perfused rat kidney. Particulars: dose 1 μg; experimental period E; mean of 3-8 experiments.

From patent US5212286A, “Atrial Natriuretic/vasodilator peptide compounds” (Scios Nova Inc., priority 1986, dated 1993) come the findings set out here.

Positions of bridges follow the written chain, without caps; N, C: chain ends. Residues, ends and D or L forms follow the SMILES beside them.

A word on the Ki: it is the dissociation constant of the complex between target and ligand, obtained from inhibition or displacement.

`CC[C@H](C)[C@@H]1NC(=O)[C@H](CCCNC(=N)N)NC(=O)[C@H](CC(=O)O)NC(=O)[C@@H](CCSC)NC(=O)[C@H](CCCNC(=N)N)NC(=O)CNC(=O)CNC(=O)[C@H](Cc2ccccc2)NC(=O)[C@@H](NC(=O)[C@H](CO)NC(=O)[C@H](CO)NC(=O)[C@@H](N)CCCNC(=N)N)CSSC[C@@H](C(=O)N[C@@H](CC(N)=O)C(=O)N[C@@H](CO)C(=O)N[C@@H](Cc2ccccc2)C(=O)N[C@@H](CCCNC(=N)N)C(=O)N[C@@H](Cc2ccc(O)cc2)C(=O)O)NC(=O)CNC(=O)[C@H](CC(C)C)NC(=O)CNC(=O)[C@H](CO)NC(=O)[C@H](CCC(N)=O)NC(=O)[C@H](C)NC(=O)CNC1=O` [[D-Met^135]hANVP(127-151), H-Arg-Ser-Ser-Cys-Phe-Gly-Arg-[D-Met]-Asp-Arg-Ile-Gly-Ala-Gln-Ser-Gly-Leu-Gly-Cys-Asn-Ser-Phe-Arg-Tyr-OH]: the IC50 in assay [1] was 7.6 nM. The compound further displayed a Ki in assay [2] (Series B smooth muscle cells) of 4.27 nM.
For `CC[C@H](C)[C@@H]1NC(=O)[C@H](CCCNC(=N)N)NC(=O)[C@H](CC(=O)O)NC(=O)[C@H](CCSC)NC(=O)[C@H](CCCNC(=N)N)NC(=O)CNC(=O)CNC(=O)[C@H](Cc2ccccc2)NC(=O)[C@@H](NC(=O)[C@H](CO)NC(=O)[C@H](CO)NC(=O)[C@@H](N)CCCNC(=N)N)CSSC[C@@H](C(=O)O)NC(=O)CNC(=O)[C@H](CC(C)C)NC(=O)CNC(=O)[C@H](CO)NC(=O)[C@H](CCC(N)=O)NC(=O)[C@H](C)NC(=O)CNC1=O` [hANVP(127-146)] (H-RSSCFGGRMDRIGAQSGLGC-OH; disulfide 4-20), in assay [1], the “vasorelaxant potency in words” value is listed as “substantially diminished potency” and the IC50 turned out to be 100 nM. The compound further gave an inhibition constant Ki in assay [2] (Series B smooth muscle cells) of 1.82 nM.
`CC[C@H](C)[C@@H]1NC(=O)[C@H](CCCNC(=N)N)NC(=O)[C@H](CC(N)=O)NC(=O)[C@H]([C@@H](C)CC)NC(=O)[C@H](CCCNC(=N)N)NC(=O)CNC(=O)CNC(=O)[C@H](Cc2ccccc2)NC(=O)[C@@H](NC(=O)[C@H](CO)NC(=O)[C@H](CO)NC(=O)[C@@H](N)CCCNC(=N)N)CSSC[C@@H](C(=O)N[C@@H](CC(N)=O)C(=O)N[C@@H](CO)C(=O)N[C@@H](Cc2ccccc2)C(=O)N[C@@H](CCCNC(=N)N)C(=O)N[C@@H](Cc2ccc(O)cc2)C(=O)O)NC(=O)CNC(=O)[C@H](CC(C)C)NC(=O)CNC(=O)[C@H](CO)NC(=O)[C@H](CCC(N)=O)NC(=O)[C@H](C)NC(=O)CNC1=O` [[Asn^135]rANVP(126-150)] (H-RSSCFGGRINRIGAQSGLGCNSFRY-OH; disulfide 4-20): the Ki in assay [2] (Series B smooth muscle cells) stood at 33.9 nM.
On to `CC[C@H](C)[C@@H]1NC(=O)[C@H](CCCNC(=N)N)NC(=O)[C@H](CC(=O)O)NC(=O)[C@H]([C@@H](C)CC)NC(=O)[C@H](CCCNC(=N)N)NC(=O)CNC(=O)CNC(=O)[C@H](Cc2ccccc2)NC(=O)[C@@H](NC(=O)[C@H](CO)NC(=O)[C@H](CO)NC(=O)[C@@H](N)CCCNC(=N)N)CSSC[C@@H](C(=O)N[C@@H](CC(N)=O)C(=O)N[C@@H](CO)C(=O)N[C@@H](Cc2ccccc2)C(=O)O)NC(=O)CNC(=O)[C@H](CC(C)C)NC(=O)CNC(=O)[C@H](CO)NC(=O)[C@H](CCC(N)=O)NC(=O)[C@H](C)NC(=O)CNC1=O` [rANVP(126-148)] (H-RSSCFGGRIDRIGAQSGLGCNSF-OH; disulfide 4-20), for which, in assay [1], the “vasorelaxant potency in words” value is “substantially less potent than rANVP(126-150)” and the IC50 came to 7.5 nM. For the same compound, the “binding activity in smooth muscle cells relative to rANVP(126-150), in words” value in assay [2] is recorded as “comparable binding activity to rANVP(126-150)”. This compound also yielded an inhibitory constant (Ki) in assay [2] (Series B smooth muscle cells) of 1.32 nM. Moreover, in assay [3], the “Peak Na+ Excr.” value worked out at 56.3 ± 8 µmol/min and the “Peak Urine Vol.” value amounted to 6.8 ± 0.5 µL/min.
Turning to `CC[C@H](C)[C@@H]1NC(=O)[C@H](CCCNC(=N)N)NC(=O)[C@H](CC(=O)O)NC(=O)[C@H]([C@@H](C)CC)NC(=O)[C@H](CCCNC(=N)N)NC(=O)CNC(=O)CNC(=O)[C@H](Cc2ccccc2)NC(=O)[C@@H](NC(=O)[C@H](CO)NC(=O)[C@H](CO)NC(=O)[C@@H](N)CCCNC(=N)N)CSSC[C@@H](C(=O)N[C@@H](CC(N)=O)C(=O)N[C@@H](CO)C(N)=O)NC(=O)CNC(=O)[C@H](CC(C)C)NC(=O)CNC(=O)[C@H](CO)NC(=O)[C@H](CCC(N)=O)NC(=O)[C@H](C)NC(=O)CNC1=O` [rANVP(126-147)-NH2] (H-RSSCFGGRIDRIGAQSGLGCNS-NH2; disulfide 4-20), in assay [1], the IC50 is 13 nM. In assay [2] (Series B smooth muscle cells), the Ki is 1.83 nM.
As for `CC[C@H](C)[C@@H]1NC(=O)[C@H](CCCNC(=N)N)NC(=O)[C@H](CC(=O)O)NC(=O)[C@H](CCSC)NC(=O)[C@H](CCCNC(=N)N)NC(=O)CNC(=O)CNC(=O)[C@H](Cc2ccccc2)NC(=O)[C@@H](NC(=O)[C@H](CO)NC(=O)[C@H](CO)NC(=O)[C@@H](N)CCCNC(=N)N)CSSC[C@@H](C(=O)N[C@@H](CC(N)=O)C(=O)N[C@@H](CO)C(=O)N[C@@H](Cc2ccccc2)C(=O)O)NC(=O)CNC(=O)[C@H](CC(C)C)NC(=O)CNC(=O)[C@H](CO)NC(=O)[C@H](CCC(N)=O)NC(=O)[C@H](C)NC(=O)CNC1=O` [hANVP(127-149)] (H-RSSCFGGRMDRIGAQSGLGCNSF-OH; disulfide 4-20), in assay [2] (Series B smooth muscle cells), the affinity, expressed as Ki, was 2.45 nM.
As to `CC[C@H](C)[C@@H]1NC(=O)[C@H](CCCNC(=N)N)NC(=O)CNC(=O)CNC(=O)[C@H](Cc2ccccc2)NC(=O)[C@@H](NC(=O)[C@H](CO)NC(=O)[C@H](CO)NC(=O)[C@@H](N)CCCNC(=N)N)CSSC[C@@H](C(=O)N[C@@H](CC(N)=O)C(=O)N[C@@H](CO)C(=O)N[C@@H](Cc2ccccc2)C(=O)N[C@@H](CCCNC(=N)N)C(=O)N[C@@H](Cc2ccc(O)cc2)C(=O)O)NC(=O)CNC(=O)[C@H](CC(C)C)NC(=O)CNC(=O)[C@H](CO)NC(=O)[C@H](CCC(N)=O)NC(=O)[C@H](C)NC(=O)[C@@H](C)NC(=O)[C@H]([C@@H](C)CC)NC(=O)[C@H](CCCNC(=N)N)NC(=O)[C@H](CC(=O)O)NC1=O` [[D-Ala^138]rANVP(126-150), H-Arg-Ser-Ser-Cys-Phe-Gly-Gly-Arg-Ile-Asp-Arg-Ile-[D-Ala]-Ala-Gln-Ser-Gly-Leu-Gly-Cys-Asn-Ser-Phe-Arg-Tyr-OH], in assay [4], the “.V (urine flow rate)” value amounted to 57.5 µL/min, the GFR stood at 0.54 mL/min and the “UNa.V (urinary sodium excretion rate)” value is listed as 2.53 μEq/min. Further, in assay [1], the IC50 turned out to be 3.1 nM. In addition, the inhibition constant (Ki) in assay [2] (Series A smooth muscle cells) stood at 20 nM.
